Assay results as given in PubChem BioAssay AID1259407 (Chemical Carcinogenesis Research Information System (CCRIS), 2018).
Activity calls are given as the source filed them. No rule for the calls is given here.

Tested on: CCRIS mutagenicity, Ames/micronucleus/aberration tests
Assay: CCRIS mutagenicity studies
[1] = Test System: AMES SALMONELLA TYPHIMURIUM, Strain/Indicator: TA100, Metabolic Activation: NONE, Method: STANDARD PLATE
[2] = Test System: AMES SALMONELLA TYPHIMURIUM, Strain/Indicator: TA100, Metabolic Activation: RAT, LIVER, S-9, AROCLOR 1254, Method: STANDARD PLATE
[3] = Test System: AMES SALMONELLA TYPHIMURIUM, Strain/Indicator: TA100, Metabolic Activation: NONE, Method: PREINCUBATION
[4] = Test System: AMES SALMONELLA TYPHIMURIUM, Strain/Indicator: TA97, Metabolic Activation: NONE, Method: PREINCUBATION
[5] = Test System: AMES SALMONELLA TYPHIMURIUM, Strain/Indicator: TA98, Metabolic Activation: NONE, Method: PREINCUBATION
[6] = Test System: AMES SALMONELLA TYPHIMURIUM, Strain/Indicator: TA1535, Metabolic Activation: NONE, Method: PREINCUBATION
[7] = Test System: AMES SALMONELLA TYPHIMURIUM, Strain/Indicator: TA98, Metabolic Activation: NONE, Method: STANDARD PLATE
[8] = Test System: AMES SALMONELLA TYPHIMURIUM, Strain/Indicator: TA102, Metabolic Activation: NONE, Method: PREINCUBATION

Measured: mutagenic call

Cc1ccc(C(=O)O[C@@H](C(=O)O)[C@@H](OC(=O)c2ccc(C)cc2)C(=O)O)cc1 (tested in a mixture with another compound)
active: Test System: AMES SALMONELLA TYPHIMURIUM, Strain/Indicator: TA98, Metabolic Activation: RAT, LIVER, S-9, AROCLOR 1254, Method: STANDARD PLATE active; positive | [2] active; positive | Test System: AMES SALMONELLA TYPHIMURIUM, Strain/Indicator: TA1537, Metabolic Activation: RAT, LIVER, S-9, AROCLOR 1254, Method: STANDARD PLATE active; positive
inactive: [1] inactive; negative

C=CC(=O)OCC (tested in a mixture with another compound)
inactive: Test System: AMES SALMONELLA TYPHIMURIUM, Strain/Indicator: TA1538, Metabolic Activation: RAT, LIVER, S-9, AROCLOR 1254, Method: STANDARD PLATE inactive; negative
active: [2] active; positive | Test System: AMES SALMONELLA TYPHIMURIUM, Strain/Indicator: TA1535, Metabolic Activation: RAT, LIVER, S-9, AROCLOR 1254, Method: STANDARD PLATE active; positive

CC\C=C/C=C\C=C/C=C\C=C/OCC(C)O (configuration not stated)
active: [3] active; positive

CCCCC(CC)COCC1CO1 (configuration not stated)
inactive: Test System: AMES SALMONELLA TYPHIMURIUM, Strain/Indicator: TA97, Metabolic Activation: HAMSTER, LIVER, S-9, AROCLOR 1254 (10%), Method: PREINCUBATION inactive; negative | [4] inactive; negative | Test System: AMES SALMONELLA TYPHIMURIUM, Strain/Indicator: TA97, Metabolic Activation: RAT, LIVER, S-9, AROCLOR 1254 (10%), Method: PREINCUBATION inactive; negative | Test System: AMES SALMONELLA TYPHIMURIUM, Strain/Indicator: TA98, Metabolic Activation: HAMSTER, LIVER, S-9, AROCLOR 1254 (10%), Method: PREINCUBATION inactive; negative | [5] inactive; negative | Test System: AMES SALMONELLA TYPHIMURIUM, Strain/Indicator: TA98, Metabolic Activation: RAT, LIVER, S-9, AROCLOR 1254 (10%), Method: PREINCUBATION inactive; negative | Test System: AMES SALMONELLA TYPHIMURIUM, Strain/Indicator: TA100, Metabolic Activation: HAMSTER, LIVER, S-9, AROCLOR 1254 (10%), Method: PREINCUBATION inactive; negative | [3] inactive; negative | Test System: AMES SALMONELLA TYPHIMURIUM, Strain/Indicator: TA100, Metabolic Activation: RAT, LIVER, S-9, AROCLOR 1254 (5 OR 30%), Method: PREINCUBATION inactive; negative | Test System: AMES SALMONELLA TYPHIMURIUM, Strain/Indicator: TA100, Metabolic Activation: RAT, LIVER, S-9, AROCLOR 1254 (30%), Method: PREINCUBATION inactive; negative | Test System: AMES SALMONELLA TYPHIMURIUM, Strain/Indicator: TA1535, Metabolic Activation: HAMSTER, LIVER, S-9, AROCLOR 1254 (10%), Method: PREINCUBATION inactive; negative | [6] inactive; negative | Test System: AMES SALMONELLA TYPHIMURIUM, Strain/Indicator: TA1535, Metabolic Activation: RAT, LIVER, S-9, AROCLOR 1254 (30%), Method: PREINCUBATION inactive; negative
active: Test System: AMES SALMONELLA TYPHIMURIUM, Strain/Indicator: TA1535, Metabolic Activation: RAT, LIVER, S-9, AROCLOR 1254 (5% & 10%), Method: PREINCUBATION active; positive | Test System: AMES SALMONELLA TYPHIMURIUM, Strain/Indicator: TA1535, Metabolic Activation: RAT, LIVER, S-9, AROCLOR 1254 (5 OR 10%), Method: PREINCUBATION active; positive

O[C@@H]1c2cccc3ccc4cc5ccccc5c(c4c23)[C@H]1O
active: Test System: CHINESE HAMSTER V-79, Strain/Indicator: V-79/8-AZAGUANINE, Metabolic Activation: NONE, Method: STANDARD PLATE active; positive

OCc1ccc(-c2nccc3c2[nH]c2ccccc23)o1
active: [3] active; positive

C[C@H]1C[C@@]23CCC4C[C@](C)(C(=O)O)CC[C@@]4(C)[C@@H]2CC[C@]1(O)C3 (some centres not stated)
inactive: Test System: AMES SALMONELLA TYPHIMURIUM, Strain/Indicator: TM677, Metabolic Activation: RAT, LIVER, S-9, AROCLOR 1254, Method: PREINCUBATION inactive; negative

Cc1ccc(N=Nc2c(O)ccc3ccccc23)cc1
inactive: [7] inactive; negative | Test System: AMES SALMONELLA TYPHIMURIUM, Strain/Indicator: TA98, Metabolic Activation: RAT, LIVER, S-9, Method: STANDARD PLATE inactive; negative | [1] inactive; negative | Test System: AMES SALMONELLA TYPHIMURIUM, Strain/Indicator: TA100, Metabolic Activation: RAT, LIVER, S-9,, Method: STANDARD PLATE inactive; negative

CC(N)[13C](=O)O (configuration not stated)
inactive: [4] inactive; negative | Test System: AMES SALMONELLA TYPHIMURIUM, Strain/Indicator: TA97, Metabolic Activation: RAT, LIVER, S-9, AROCLOR 1254, Method: PREINCUBATION inactive; negative | [8] inactive; negative | Test System: AMES SALMONELLA TYPHIMURIUM, Strain/Indicator: TA102, Metabolic Activation: RAT, LIVER, S-9, AROCLOR 1254, Method: PREINCUBATION inactive; negative

O=P(O)(O)CCCl
inactive: End Point: In vitro chromosomal aberrations, Test System: Chinese hamster ovary (CHO-WBL) cells, Metabolic Activation: None inactive; negative | End Point: In vitro chromosomal aberrations, Test System: Chinese hamster ovary (CHO-WBL) cells, Metabolic Activation: Rat, Liver, S-9, Aroclor 1254 inactive; negative | Test System: Chinese hamster ovary cells, Strain/Indicator: CHO-K1-BH4 (HGPRT)/6-Thioguanine, Metabolic Activation: None, Method: Suspension/Plate? inactive; negative (an increase in mutation frequency at 2.5 mg/ml not confirmed in repeat | Test System: Chinese hamster ovary cells, Strain/Indicator: CHO-K1-BH4 (HGPRT)/6-Thioguanine, Metabolic Activation: Rat, Liver, S-9, Aroclor 1254, Method: Suspension/Plate? inactive; negative (an increase in mutation frequency at 2.5 mg/ml not confirmed in repeat

ClCc1ccc2c3c(cccc13)-c1ccccc1-2
active: [7] active; positive | [1] active; positive

CC(O)C(C)[N+](=O)[O-] (configuration not stated)
inactive: [5] inactive; negative | Test System: AMES SALMONELLA TYPHIMURIUM, Strain/Indicator: TA98, Metabolic Activation: RAT, LIVER, S-9, AROCLOR, Method: PREINCUBATION inactive; negative | [3] inactive; negative | [8] inactive; negative | Test System: AMES SALMONELLA TYPHIMURIUM, Strain/Indicator: TA102, Metabolic Activation: RAT, LIVER, S-9, AROCLOR, Method: PREINCUBATION inactive; negative

N=C(N)N
inactive: [5] inactive; negative | Test System: AMES SALMONELLA TYPHIMURIUM, Strain/Indicator: TA98, Metabolic Activation: RAT LIVER S-9, PHENOBARBITAL AND BETA-NAPHTHOFLAVONE, Method: PREINCUBATION inactive; negative | [3] inactive; negative | Test System: AMES SALMONELLA TYPHIMURIUM, Strain/Indicator: TA100, Metabolic Activation: RAT LIVER S-9, PHENOBARBITAL AND BETA-NAPHTHOFLAVONE, Method: PREINCUBATION inactive; negative | [6] inactive; negative | Test System: AMES SALMONELLA TYPHIMURIUM, Strain/Indicator: TA1535, Metabolic Activation: RAT LIVER S-9, PHENOBARBITAL AND BETA-NAPHTHOFLAVONE, Method: PREINCUBATION inactive; negative | Test System: AMES SALMONELLA TYPHIMURIUM, Strain/Indicator: TA1537, Metabolic Activation: NONE, Method: PREINCUBATION inactive; negative | Test System: AMES SALMONELLA TYPHIMURIUM, Strain/Indicator: TA1537, Metabolic Activation: RAT LIVER S-9, PHENOBARBITAL AND BETA-NAPHTHOFLAVONE, Method: PREINCUBATION inactive; negative | Test System: AMES SALMONELLA TYPHIMURIUM, Strain/Indicator: TA1538, Metabolic Activation: NONE, Method: PREINCUBATION inactive; negative | Test System: AMES SALMONELLA TYPHIMURIUM, Strain/Indicator: TA1538, Metabolic Activation: RAT LIVER S-9, PHENOBARBITAL AND BETA-NAPHTHOFLAVONE, Method: PREINCUBATION inactive; negative | Test System: E.COLI, Strain/Indicator: WP2UVRA, Metabolic Activation: NONE, Method: PREINCUBATION inactive; negative | Test System: E.COLI, Strain/Indicator: WP2UVRA, Metabolic Activation: RAT LIVER S-9, PHENOBARBITAL AND BETA-NAPHTHOFLAVONE, Method: PREINCUBATION inactive; negative
